Data set [1] concerns Herpes simplex type 2 (HSV-2) strain MS. The data set can be described thus: CPE inhibition assay, HSV-2 (MS) in Vero cells.
Data set [2] deals with Herpes simplex type 1 (HSV-1) strain E-377. The data set can be described thus: CPE inhibition assay, HSV-1 (E-377) in Vero cells. Particulars: for VR (virus rating): HSV-1 (E-377), Vero.
Data set [3] has as its system human foreskin fibroblasts (HFF). The data set is described as follows: MTT cytotoxicity assay in human foreskin fibroblasts.
Data set [4] concerns Herpesvirus 1 (strain 123). The data set is described as follows: In vivo activity against Herpesvirus 1 in mice (intraperitoneal challenge). More on the design: species or system Swiss mice (CD-1). The protocol:
E. Evaluation of Compounds for In Vivo Activity Against Herpesvirus 1 in Mice
(§1) Four-week-old female outbred Swiss mice (CD-1, VAF+, Charles River Labs) were housed 5 per Microisolator® cage. Feed and water were supplied ad libitum. Fifteen mice were randomly assigned to each of the following treatment groups:
(§2) Test compounds were diluted in 0.4% caboxymethylcellulose (CMC) prepared in phosphate buffered saline (PBS) at aconcentrations consistent with dosing at 0.1 ml per 10 g of body weight. Compounds were administered subcutaneously once daily for a total of 7 doses. Five mice in each treatment group served as uninfected toxicity controls. The remaining ten mice in each group were challenged intraperitoneally with an LD90 dose of the twelfth in vivo passage of Herpesvirus 1 (strain 123). Virus challenge was administered two hours after the first dose of compound was given. Mortality was monitored daily for 21 days. The mortality rates, average day of death, geometric mean time to death and virus rating were calculated for each treatment group.

Another data set concerns HSV-2. The data set can be described thus: Plaque reduction in Vero cells, HSV-2. The class given is cell-based, Herpes simplex virus type 2. Particulars: Human alphaherpesvirus 2, HSV-2, Vero, read-out: MIC50. The protocol:
(§3) A-2. Alternate Method for Evaluation of Compounds for Activity Against Herpes Simplex Virus Types 1 and 2
(§4) Confluent Vero cell monolayers were infected with a dilution of stock virus which yielded approximately 100 plaque forming units (pfu) per well. After the adsorption period, the infected cell monolayers were treated in duplicate with serial dilutions of the test compound. Duplicate cell controls containing medium alone and virus controls containing medium and virus were run simultaneously with the test compound. After incubation for 3 to 4 days to allow for the development of visible, discrete plaques in the untreated, virus infected control cultures, the monolayers were fixed with formaldehyde and stained with crystal violet. Plaques visible to the unaided eye were counted and the mean number of plaques in the duplicate wells for each compound concentration tested and for the untreated, virus infected controls were determined. The concentration of test compound which reduced by 50% the mean number of plaques in the untreated, virus infected control cultures was then determined and expressed as the ID50.

A further data set has as its system HSV-1 (E-377). The data set can be described thus: Plaque reduction in Vero cells, HSV-1 (E-377). It is filed as cell-based, Herpes simplex virus type 1. Conditions: Human alphaherpesvirus 1, read-out: MIC50. On the procedure: as §3, §4
Data set [5] concerns Varicella-Zoster Virus (clinical isolate DM625). The data set is described as follows: microbe, parasite or virus in culture. It is filed as cell-based. Particulars: Human alphaherpesvirus 3, Fibroblast, 120 h; read-out: MIC50.
The test system of data set [6] is duck hepatitis B virus (DHBV). The data set can be described thus: Efficacy against hepatitis B virus in vivo in ducklings. Conditions: for Serum DHBV DNA: after treatment (days 10-17). More on the design: species or system Pekino ducklings. On the procedure:
F. Evaluation of Compounds for Efficacy Against Hepatitis B Virus In Vivo in Ducklings
The test method is an adaptation of the method of Smee, et al., Antimicrob. Agents Chemotherap. 27 277 (1985). The serum level of duck hepatitis B virus (DHBV) DNA was monitored in 6 infected Pekino ducklings from age 6 days to age 27 days. Four ducklings were treated with 70 mg/kg/day IP, b.i.d. of the test compound as a 3 mg/ml solution in 0.9% aqueous NaCl on days 10-17. Two control ducklings were treated with 23 ml/kg/day IP, b.i.d. of 0.9% aqueous NaCl on days 10-17. The level of DHBV DNA in the duckling serum was measured daily.

The nature of data set [7]: Toxicity in uninfected mice. It is filed as in vivo, Swiss mice (CD-1). Conditions: subcutaneous once daily, 7 doses. The protocol: as §1, §2
The test system of a further data set is HSV-1 (123). The data set is described as follows: Plaque reduction in Vero cells, HSV-1 (123). It is filed as cell-based, Herpes simplex virus type 1. Conditions: Human alphaherpesvirus 1, read-out: MIC50. The protocol:
as §3, §4

The subject of data set [8] is Herpes simplex type 2 (HSV-2) strain MS. Particulars: monkey, vero cells.
Data set [9] concerns African green monkey kidney (Vero) cells. The data set is described as follows: Drug cytotoxicity in Vero host cells (CPE assay). Particulars: Vero.
A short description of data set [10]: Drug cytotoxicity in Vero host cells (CPE assay). Particulars: monkey, vero cells.
The test system of data set [11] is Herpes simplex type 1 (HSV-1) strain E-377. Conditions: monkey, vero cells.

In brackets after ≈: the same amount, converted by molar mass. Several values for one entry are separate records, joined by “and”; a condition that tells them apart may be missing. Identical values can stand only once.

In the case of `Nc1nc(Cl)c2ncn(C3CC(CO)C3CO)c2n1` (stereo not shown) [Example 1H, 3-(2'-Amino-6'-chloro-9'H-purin-9'-yl)-1,2-bis(hydroxymethyl)cyclobutane], the “VR (virus rating)” value in data set [1] is 0.6 and 0.5; in [2], 1.4.
For `Nc1nc2c(ncn2C2CC(CO)C2CO)c(=O)[nH]1` (stereo not shown) [Example 1I, 9-(2',3'-Bis(hydroxymethyl)cyclobutyl)guanine], the “MTT Assay” value in data set [3] (3.2 ug/ml) was 79 % of control; in data set [3] (10 ug/ml), 76 % of control; in [3] (32 ug/ml) it was 72 % of control; in data set [3] (100 ug/ml) it was 62 % of control. Moreover, the “VR (virus rating) = GMTD of experimental/GMTD of diluent treated control” value was 1.3 in data set [4] (3.2 mg/kg), 1.6 in data set [4] (10 mg/kg) and 2.5 in data set [4] (32 mg/kg). The IC50 worked out at 1 µg/mL (≈ 3.77 µM) in the data set on HSV-2, 0.5 µg/mL (≈ 1.88 µM) in the data set on HSV-1 (E-377), 1.4 µg/mL (≈ 5.28 µM) in [5] and 1 µg/mL (≈ 3.77 µM) in the data set with HSV-1 (123). For the same compound, the “VR (virus rating)” value in data set [1] was 4.1 and 3.4; in data set [2], 5.7 and 5.1. The “Deaths of treated ducks” value in data set [6] (DHBV-infected ducklings, 70 mg/kg/day IP b.i.d. on days 10-17) was “ducks 3 and 4 died on day 18 and day 26, respectively”. The “Serum DHBV DNA” value in data set [6] (age 18 days, lines = ducks 1-4 in order) is below 1 ng/mL; in data set [6] (age 19 days, lines = ducks 1, 2, 4), below 1 ng/mL; in [6] (age 20 days, lines = ducks 1, 2, 4) it was below 1 ng/mL; in data set [6] (age 21 days, lines = ducks 1, 2, 4), below 1 ng/mL. Also, the “No. Dead/No. Uninfected” value in data set [7] (3.2 mg/kg) is 0/5; in [7] (10 mg/kg), 0/5; in [7] (32 mg/kg), 0/3.
Turning to `Nc1ncnc2c1ncn2C1CC(CO)C1CO` (stereo not shown) [Example 4C, 9-(2',3'-Bis(hydroxymethyl)cyclobutyl)adenine], the “TI: therapeutic index, minimum cytotoxic drug concentration / ID50” value in data set [8] was found to be 5.5. Besides, the entries for the “MTC: minimum drug concentration causing any cytotoxicity” value in [9] (HSV-1 (E-377) assay) and in data set [9] (HSV-2 (MS) assay) were 32 µg/mL and 100 µg/mL, respectively. For the same compound, the “VR (virus rating)” value in data set [1] is reported as 1.8.
For `Nc1nc2c(ncn2C2CC(CO)C2)c(=O)[nH]1` (stereo not shown) [Example 5G, 9-(3'-(Hydroxymethyl)cyclobutyl)guanine], the “TI: therapeutic index, minimum cytotoxic drug concentration / ID50” value in data set [8] is above 1.0; in data set [11], above 2.2. In addition, the “MTC: minimum drug concentration causing any cytotoxicity” value in data set [9] (HSV-2 (MS) assay) is above 320 µg/mL. In addition, in data set [10], the MCC was above 320 µg/mL. Further, the results for the “VR (virus rating)” value in [1] and in [2] were 0.9 and 2.1, respectively. In addition, the IC50 in data set [2] (Human alphaherpesvirus 1, Vero, read-out: ID50: minimum drug concentration that inhibited the CPE by 50%) was determined as 146 µg/mL (≈ 621 µM).
As to `Nc1nc2c(ncn2C2CC(CO)C2O)c(=O)[nH]1` (stereo not shown) [Example 42P, 9-(2'-hydroxy-3'-hydroxymethyl-1'-cyclobutyl)guanine], the IC50 worked out at 1 µg/mL (≈ 3.98 µM) in the data set with HSV-2, 1 µg/mL (≈ 3.98 µM) with HSV-1 (E-377) and 3 µg/mL (≈ 11.9 µM) in the data set on HSV-1 (123).

The values are drawn from patent US5246931A, “Carbocyclic nucleoside analogs” (priority 1991, dated 1993).
